The text below walks through data of patent US7888380B2, “1,2,4-Triazolylaminoaryl (heteroaryl) sulfonamide derivatives” (Janssen Pharmaceutica, N.V., priority 2004, dated 2011).

One may read the IC50 as the concentration at which inhibition is half-maximal. What is called bioavailability is the share of a dose that reaches the circulation, judged against a reference dose that is usually intravenous. High values mean much systemic uptake, low ones little systemic uptake. The term Cmax denotes the maximum level reached in the sampled fluid or tissue.

Where a name gives a salt, the structure may show the parent alone. Read-outs that look alike come from different tables or passages of the source.

For series [1], the target named is T1, VEGF-R2 kinase (Rattus norvegicus, UniProt O08775).
T1 construct: 6xHis (polyhistidine) (N)
The series is described as follows: VEGF-R2 Kinase Screening Assay. The settings on record: 10 μM ATP; rat VEGF-R2 kinase domain; read-out: IC50 (μM) VEGFR. The format is biochemical. The protocol:
A kinase reaction mixture was prepared containing 50 mM Tris-HCl pH=8, 10 mM MgCl2, 0.1 mM Na3PO4, 1 mM DTT, 10 μM ATP, 0.025 μM biotinylated peptide substrate and 0.8 μCuries per well ^33P-γ-ATP (2000-3000 Ci/mmol). 70 μL of the kinase reaction mixture was dispensed into each well of a streptavidin coated FlashPlate™ (Cat. # SMP103, NEN, Boston, Mass.). Then 1 μL of test compound stock in 100% DMSO was added to the wells resulting in a final concentration of 1% DMSO in the reaction with a 100 μL final reaction volume. Next, soluble rat tyrosine kinase containing an N-terminal 6×HIS tag was diluted in 50 mM Tris-HCl pH=8.0, 0.1% BSA at a concentration of 5 ng per μL and 30 μL (150 ng enzyme per test well) was added to each well to initiate the reaction. The reaction was incubated for one hour at 30° C. At the end of the 1 h incubation, the reaction was terminated by aspirating the reaction mixture from the plate and washing the wells twice with PBS containing 100 mM EDTA. The PLC1 biotinylated peptide substrate became immobilized on the Flashplate™ and the incorporation of ^33P-γ-ATP was measured by reading the plate on a scintillation counter. Inhibition of the enzymatic activity of the VEGF-R2 kinase was measured by observing a reduced amount of ^33P-γ-ATP incorporated into the immobilized peptide.
VEGF-R (vascular endothelial growth factor receptor-2) is a fusion protein containing a polyhistidine tag at the N-terminus followed by amino acids 786-1343 of the rat VEGF-R2 kinase domain (GenBank Accession #U93306). CDK1 (cyclin dependent kinase 1) was isolated from insect cells expressing both the human CDK1 catalytic subunit and its positive regulatory subunit cyclin B (New England Biolabs, Beverly, Mass., Cat. # 6020). CDK2 in complex with cyclin A is commercially available (Upstate Biotech, Lake Placid, N.Y.). The HER2 (human epidermal growth factor receptor-2) construct contains a polyhistidine tag at the N-terminus followed by 24 additional amino acids and begins at amino acid 676 followed by the remainder of the HER2 cytoplasmic domain.

Series [2] is described as follows: Standard Rat Pharmacokinetics (PK). As to conditions: for bioavailability: plasma, rat, Dose(IV)*AUC(oral)/Dose(oral)*AUC(IV); for Cmax: rat plasma. The format is in vivo. On the procedure:
The conversion of prodrug to active form was evaluated using a standard rat PK protocol. The following procedure may be followed.
Rats were dosed intravenously (IV) at the level of 1.5-3 mg/kg and by oral gavage (PO) at the level of 10-30 mg/kg with prodrug candidate. For each study, four rats were used for IV dosing and four rats were used for PO dosing. Prodrug was typically formulated for IV dosing as a solution in 10% W/V solutol in 5% dextrose in sterile water vehicle (D5W). Prodrug was typically formulated for oral dosing as a uniform suspension in 0.5% methylcellulose vehicle. Blood samples (0.5 mL) were collected into heparinized tubes post dose via orbital sinus puncture. For IV dosing, blood samples were collected at 5, 15 and 30 mins, 1, 2, 4, 6, 8, and 24 hrs after the dosing. For PO dosing, blood samples were collected at 30 mins, 1, 2, 4, 6, 8 and 24 hrs. Blood samples were centrifuged for cell removal, and precisely 200 μL of plasma supernatant was then transferred to a clean vial, placed on dry ice, and subsequently stored in a −70° C. freezer prior to analysis. Results were calculated by WinNonlin Pro version 3.1. Plasma levels were determined and the oral and intravenous area under the concentration vs. time curve (AUC) were compared to determine the % bioavailability (% F) by the following formula: Dose(IV)*AUC(oral)/Dose (oral)*AUC(IV).

The mark [3] stands for this setting: IV 2 mg/kg of prodrug, read-out: Prodrug Cmax (μM) IV.
Where [4] appears, read: PO 10 mg/kg of prodrug, read-out: Prodrug Cmax (μM) PO.
[5] abbreviates: IV 3 mg/kg of prodrug, read-out: Prodrug Cmax (μM) IV.
[6] abbreviates: PO 30 mg/kg of prodrug, read-out: Prodrug Cmax (μM) PO.

T1 sequence (O08775 786-1343): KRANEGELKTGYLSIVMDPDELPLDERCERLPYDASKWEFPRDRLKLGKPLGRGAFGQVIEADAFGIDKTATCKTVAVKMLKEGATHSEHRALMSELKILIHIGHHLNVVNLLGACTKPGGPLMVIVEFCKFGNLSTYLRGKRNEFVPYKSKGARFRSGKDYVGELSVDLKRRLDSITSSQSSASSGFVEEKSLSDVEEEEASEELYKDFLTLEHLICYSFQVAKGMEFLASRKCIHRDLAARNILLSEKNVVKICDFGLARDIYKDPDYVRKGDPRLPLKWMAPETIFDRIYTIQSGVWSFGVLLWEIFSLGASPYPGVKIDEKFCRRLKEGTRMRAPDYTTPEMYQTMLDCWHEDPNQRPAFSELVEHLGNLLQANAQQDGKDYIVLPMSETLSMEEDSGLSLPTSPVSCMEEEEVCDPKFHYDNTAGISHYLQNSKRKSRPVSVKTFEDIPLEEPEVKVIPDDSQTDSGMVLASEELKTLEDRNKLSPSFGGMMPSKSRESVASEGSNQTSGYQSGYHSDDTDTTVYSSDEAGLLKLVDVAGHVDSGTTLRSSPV

As for `COCCOCCOCC(=O)NS(=O)(=O)c1ccc(Nc2nc(N)n(C(=O)c3c(F)cccc3F)n2)cc1` [Compound 9, 4-[5-amino-1-(2,6-difluoro-benzoyl)-1H-[1,2,4]triazol-3-ylamino]-N-{2-[2-(2-methoxy-ethoxy)-ethoxy]-acetyl}-benzenesulfonamide], the IC50 in series [1] was not below 100 µM. In series [2] (IV/PO 2/10 mg/kg), this molecule had a bioavailability of 0%.

Consider `COCCOCCOCC(=O)Nc1nc(Nc2ccc(S(N)(=O)=O)cc2)nn1C(=O)c1c(F)cccc1F` [Compound 10, N-[2-(2,6-difluoro-benzoyl)-5-(4-sulfamoyl-phenylamino)-2H-[1,2,4]triazol-3-yl]-2-[2-(2-methoxy-ethoxy)-ethoxy]-acetamide], for which the half-inhibitory concentration (IC50) in series [1] is 1.76 µM. For the same molecule, the bioavailability in series [2] (IV/PO 2/10 mg/kg) was found to be 0%. The Cmax in series [2] (setting [3]) worked out at 67.3 µM.

For `Nc1nc(Nc2ccc(S(=O)(=O)NC(=O)CCCC(=O)O)cc2)nn1C(=O)c1c(F)cccc1F` [Compound 11, 5-{4-[5-amino-1-(2,6-difluoro-benzoyl)-1H-[1,2,4]triazol-3-ylamino]-benzenesulfonylamino}-5-oxo-pentanoic acid], the IC50 in series [1] came out at 2.77 µM. Further, the bioavailability in series [2] (IV/PO 2/10 mg/kg) was 0%. The results for the Cmax in series [2] (setting [3]) and in series [2] (setting [4]) were 81.8 µM and 0.346 µM, respectively.

Take `Nc1nc(Nc2ccc(S(=O)(=O)NC(=O)COCCOCCOCC(=O)O)cc2)nn1C(=O)c1c(F)cccc1F` [Compound 12, {2-[2-(2-{4-[5-amino-1-(2,6-difluoro-benzoyl)-1H-[1,2,4]triazol-3-ylamino]-benzenesulfonylamino}-2-oxo-ethoxy)-ethoxy]-ethoxy}-acetic acid.2TFA salt]: the half-inhibitory concentration (IC50) in series [1] came to 16.8 µM. Moreover, in series [2] (IV/PO 2/10 mg/kg), the bioavailability was 0%. The Cmax in series [2] (setting [4]) is 0.04 µM.

Consider `Nc1nc(Nc2ccc(S(=O)(=O)NC(=O)[C@@H](N)CO)cc2)nn1C(=O)c1c(F)cccc1F` [Compound 13, 4-[5-amino-1-(2,6-difluoro-benzoyl)-1H-[1,2,4]triazol-3-ylamino]-N—((S)-2-amino-3-hydroxy-propionyl)-benzenesulfonamide], for which the IC50 in series [1] worked out at 1.54 µM. The same molecule showed a bioavailability in series [2] (IV/PO 2/10 mg/kg) of 0%. For the same molecule, the highest concentration (Cmax) in series [2] (setting [3]) was 8.15 µM.

As for `C[C@@H](N)C(=O)NS(=O)(=O)c1ccc(Nc2nc(N)n(C(=O)c3c(F)cccc3F)n2)cc1` [Compound 14, 4-[5-amino-1-(2,6-difluoro-benzoyl)-1H-[1,2,4]triazol-3-ylamino]-N—((R)-2-amino-propionyl)-benzenesulfonamide], the IC50 in series [1] amounted to 0.89 µM. The molecule also came in with a bioavailability in series [2] (IV/PO 2/10 mg/kg) of 1%. Besides, the figures for the peak concentration (Cmax) in series [2] (setting [3]) and in series [2] (setting [4]) were 11 µM and 0.08 µM, respectively.

As to `C[C@H](N)C(=O)N[C@@H](C)C(=O)NS(=O)(=O)c1ccc(Nc2nc(N)n(C(=O)c3c(F)cccc3F)n2)cc1.O=C(O)C(F)(F)F.O=C(O)C(F)(F)F.O=C(O)C(F)(F)F` [Compound 15, (S)-2-amino-N—((S)-2-{4-[5-amino-1-(2,6-difluoro-benzoyl)-1H-[1,2,4]triazol-3-ylamino]-benzenesulfonylamino}-1-methyl-2-oxo-ethyl)-propionamide 3 TFA salt], the 50% inhibitory concentration (IC50) in series [1] came out at 2.03 µM. Further, in series [2] (IV/PO 2/10 mg/kg), the bioavailability came to 0%. Moreover, the Cmax in series [2] (setting [3]) came out at 31.8 µM; in series [2] (setting [4]) it was 0.167 µM.

For `Nc1nc(Nc2ccc(S(=O)(=O)NC(=O)[C@@H]3CCCN3)cc2)nn1C(=O)c1c(F)cccc1F` [Compound 16, 4-[5-amino-1-(2,6-difluoro-benzoyl)-1H-[1,2,4]triazol-3-ylamino]-N—((S)-pyrrolidine-2-carbonyl)-benzenesulfonamide], in series [1], the half-maximal inhibitory concentration (IC50) amounted to 7.31 µM. For the same molecule, the bioavailability in series [2] (IV/PO 2/10 mg/kg) is 0%. Besides, the Cmax in series [2] (setting [3]) is 1.8 µM.

For `Nc1nc(Nc2ccc(S(=O)(=O)NC(=O)[C@@H](N)CC(=O)O)cc2)nn1C(=O)c1c(F)cccc1F` [Compound 17, (S)-3-amino-4-{4-[5-amino-1-(2,6-difluoro-benzoyl)-1H-[1,2,4]triazol-3-ylamino]-benzenesulfonylamino}-4-oxo-butyric acid], the IC50 in series [1] worked out at 1.56 µM. The bioavailability in series [2] (IV/PO 2/10 mg/kg) was 0%. Also, the Cmax in series [2] (setting [3]) turned out to be 18.3 µM; in series [2] (setting [4]) it was 0.1 µM.

Take `CCCCC(=O)NS(=O)(=O)c1ccc(Nc2nc(N)n(C(=O)c3c(F)cccc3F)n2)cc1` [Compound 18, 4-[5-amino-1-(2,6-difluoro-benzoyl)-1H-[1,2,4]triazol-3-ylamino]-N-pentanoyl-benzenesulfonamide]: in series [1], the IC50 stood at 1.54 µM. In series [2] (IV/PO 3/30 mg/kg), the bioavailability was 0.4%. The Cmax stood at 134 µM in series [2] (setting [5]) and 0.41 µM in series [2] (setting [6]).

For `CCCC(=O)NS(=O)(=O)c1ccc(Nc2nc(N)n(C(=O)c3c(F)cccc3F)n2)cc1` [Compound 19, 4-[5-amino-1-(2,6-difluoro-benzoyl)-1H-[1,2,4]triazol-3-ylamino]-N-butyryl-benzenesulfonamide], the IC50 in series [1] came to 0.77 µM. This molecule displayed a bioavailability in series [2] (IV/PO 3/30 mg/kg) of 0.41%. Further, the highest concentration (Cmax) is 127 µM in series [2] (setting [5]) and 0.27 µM in series [2] (setting [6]).
